Data: patent publication US8927596B2, “Antischistosomal agent” (National University Corporation Okayama University, priority 2008, dated 2015)

Tests used:
[1] = tested on: schistosomes (Schistosoma mansoni); experiment: Macroscopic findings on liver lesions in schistosome-infected mice (Experimental Example 3); assay type: in vivo; details: infected BALB/c mice, viscera observed macroscopically
[2] = tested on: schistosomes (Schistosoma mansoni); experiment: Number of schistosomes in vivo (Experimental Example 1); details: infected BALB/c mice, oral, administered on Days 14 and 15 after the infection, counted on Week 6 after the infection
Protocol: 100 μl of the antischistosomal agent of the present invention were orally administered to mice (BALB/c mice, 5-week-old) infected with schistosomes (Schistosoma mansoni) in accordance with a drug dosage regimen of FIG. 2. As a control, 100 μl of olive oil was administered. On Week 6 after the infection, the mice were sacrificed with an overdose of anesthetic, and the number of schistosomes recovered was counted under a microscope.

[3] = tested on: schistosomes (Schistosoma mansoni); experiment: Number of schistosomes and number of eggs produced per adult female schistosome (Experimental Example 2); assay type: in vivo; details: infected BALB/c mice, oral, measured on Week 9
Protocol: 100 μl of the antischistosomal agent of the present invention were orally administered to mice (BALB/c mice, 5-week-old) infected with schistosomes (Schistosoma mansoni) in accordance with a drug dosage regimen of FIG. 4. As a control, 100 μl of olive oil was administered. On Week 9 after the infection, the mice were sacrificed with an overdose of anesthetic, and the number of schistosomes recovered and the number of eggs produced per adult female schistosome were measured. The number of schistosomes was measured in the same manner as in Experimental Example 1, and the number of eggs produced was also counted under a microscope.

immature schistosomes = details: as reported in the literature (Non Patent Literature 1); cited from earlier work
[4] = administration on each of Weeks 5 to 7 after the infection

SMILES	liver lesions due to eggs of schistosomes (macroscopic) ([1]; administered on Week 5 after the infection)	enlargement of spleen [1]	number of schistosomes reduced as compared to the olive oil administration group [2] [%]	number of eggs produced reduced ([3]; administration on Week 5 only after the infection) [%]	number of eggs produced per adult female schistosome reduced as compared to the olive oil administration group [3, 4] [%]	number of schistosomes as compared to the olive oil administration group [3, 4]	effect on schistosomes at the immature stage (immature schistosomes)
C1CCCCCC2(CCCCC1)OOCCCOO2 [antischistosomal agent, 1,2,6,7-tetraoxaspiro[7.11]nonadecane]	few liver lesions	inhibited	86	87	98	not significantly reduced	
O=C(C1CCCCC1)N1CC(=O)N2CCc3ccccc3C2C1 (stereo not shown) [praziquantel]							not effective
